{"source": "patent US20250085273A1", "about": "“NOVEL RAPID DRUG DISCOVERY FOR SEPSIS AND AGENTS FOR USE AS SEPSIS THERAPY” (priority 2023, published 2025)", "key": {"[1]": {"test_system": "3-dpf Zebrafish Embryos Challenged with LPS (P. aeruginosa 60 μg/mL)", "assay_type": "in vivo, Danio rerio", "conditions": "P. aeruginosa LPS 60 μg/mL, compound 10 μM", "procedure,_shortened": "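3-dpf PTU-treated AB zebrafish embryos exposed to 60 μg/mL P. aeruginosa LPS plus 10 μM compound (final) at 28.5 °C, n=16 per compound. Tail edema and mortality scored at 6 and 24 h post exposure; rescue judged against LPS-only controls at 24 h.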"}, "[2]": {"test_system": "larval zebrafish locomotor behavior", "assay_type": "in vivo", "conditions": "in vivo", "text": "This assay is a modified version of the larval zebrafish light dark transition assay with an added UV light (wavelength=295 nm) phase to capture any compound specific neurological effects to UV light. (Basnet et al., 2019, Kokel et al., 2013, Peng et al., 2016). The light period assesses deviations from normal locomotor behavior while the rapid transition to dark provides a measure of stress response by identifying any deviations from the normal heightened locomotor activity caused by the transition to dark. The neurobehavioral assay used a custom trial control script created by Noldus Ethovision XT 15, and it was executed in a Noldus DanioVision system. Zebrafish larvae in microplates were allowed to habituate in the DanioVision system for 5 minutes under white light conditions prior to the start of the test. The neurobehavioral assay consisted of three phases: a 3-minute light phase (white light), a 3-minute dark phase (no light) and a 5 second UV phase (UV light only). The Danio Vision system captured larval zebrafish movement throughout this assay at 30 frames per second.\nLC50s for the LPS tests were determined using the Trimmed Spearmen-Karber method (Hamilton et al., 1977). The tail edema and mortality data from the initial and confirmatory drug testing was analyzed using GraphPad Prism 9 using Fisher's Exact Test. Each drug treatment group was compared pairwise with the on-board positive control group on each test plate. Statistical significance was determined with values of p≤0.05. Neurological behavioral testing data was analyzed by Ethovision software that produced an activity analysis profile per frame for each well of the 96 well plates. Any dead embryos were removed from the data set, and the remaining data set was imported into Excel. The offset function in Excel was used to average the percentage of pixel change per 0.1 s for each plate. […] The behavioral data was then statistically analyzed by drug per phase using a 2 tailed t-test to determine statistical significance p≤0.01."}, "D3": {"target": "D3 (Homo sapiens, UniProt P35462)", "sequence (P35462 whole entry)": "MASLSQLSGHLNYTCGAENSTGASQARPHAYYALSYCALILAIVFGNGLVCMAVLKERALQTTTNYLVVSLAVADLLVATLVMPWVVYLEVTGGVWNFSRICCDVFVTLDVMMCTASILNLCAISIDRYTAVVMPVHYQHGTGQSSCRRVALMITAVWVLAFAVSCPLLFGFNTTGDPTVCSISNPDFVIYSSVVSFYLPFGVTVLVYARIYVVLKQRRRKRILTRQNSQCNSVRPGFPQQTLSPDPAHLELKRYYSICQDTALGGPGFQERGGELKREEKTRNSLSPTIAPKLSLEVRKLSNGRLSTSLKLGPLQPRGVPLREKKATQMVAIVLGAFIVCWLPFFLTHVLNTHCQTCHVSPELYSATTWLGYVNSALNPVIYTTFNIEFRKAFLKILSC", "conditions": "read-out: affinity (Ki) D3; cited from earlier work"}, "α1B": {"target": "T1, α1B (Homo sapiens, UniProt P35368)", "T1 sequence (P35368 1-520)": "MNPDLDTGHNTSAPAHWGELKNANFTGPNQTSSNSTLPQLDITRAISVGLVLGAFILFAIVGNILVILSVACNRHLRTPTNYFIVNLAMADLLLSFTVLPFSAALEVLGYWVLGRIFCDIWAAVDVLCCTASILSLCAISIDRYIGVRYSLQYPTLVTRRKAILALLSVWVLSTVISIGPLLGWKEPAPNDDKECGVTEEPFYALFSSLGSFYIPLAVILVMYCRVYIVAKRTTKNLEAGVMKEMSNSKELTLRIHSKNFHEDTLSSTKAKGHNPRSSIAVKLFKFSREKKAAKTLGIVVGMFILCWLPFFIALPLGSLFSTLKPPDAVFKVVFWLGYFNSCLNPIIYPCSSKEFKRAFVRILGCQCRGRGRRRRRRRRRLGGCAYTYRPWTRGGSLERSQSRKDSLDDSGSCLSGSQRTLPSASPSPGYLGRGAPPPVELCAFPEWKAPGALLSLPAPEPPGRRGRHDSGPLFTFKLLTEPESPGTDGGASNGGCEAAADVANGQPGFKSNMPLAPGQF", "conditions": "read-out: affinity (Ki) α1B; cited from earlier work"}, "α1D": {"target": "T2, α1D (Homo sapiens, UniProt P25100)", "T2 sequence (P25100 1-572)": "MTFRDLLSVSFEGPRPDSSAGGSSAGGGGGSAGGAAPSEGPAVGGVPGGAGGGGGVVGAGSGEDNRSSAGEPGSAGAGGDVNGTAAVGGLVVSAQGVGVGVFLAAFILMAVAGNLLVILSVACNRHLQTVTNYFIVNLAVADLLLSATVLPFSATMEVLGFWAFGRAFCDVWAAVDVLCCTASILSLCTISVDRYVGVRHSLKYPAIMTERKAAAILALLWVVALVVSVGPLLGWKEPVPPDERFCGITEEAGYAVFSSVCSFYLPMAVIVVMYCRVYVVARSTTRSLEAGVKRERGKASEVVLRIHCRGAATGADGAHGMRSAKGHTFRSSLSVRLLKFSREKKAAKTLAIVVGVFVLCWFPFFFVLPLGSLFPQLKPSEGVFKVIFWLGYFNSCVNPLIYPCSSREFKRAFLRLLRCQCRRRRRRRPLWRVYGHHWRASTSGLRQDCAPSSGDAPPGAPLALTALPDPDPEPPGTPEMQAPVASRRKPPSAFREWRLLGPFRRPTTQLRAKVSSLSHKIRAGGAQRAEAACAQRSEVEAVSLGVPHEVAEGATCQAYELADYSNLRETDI", "conditions": "read-out: affinity (Ki) α1D; cited from earlier work"}, "histamine H1 receptor": {"target": "histamine H1 receptor (Homo sapiens, UniProt P35367)", "sequence (P35367 whole entry, species assumed)": "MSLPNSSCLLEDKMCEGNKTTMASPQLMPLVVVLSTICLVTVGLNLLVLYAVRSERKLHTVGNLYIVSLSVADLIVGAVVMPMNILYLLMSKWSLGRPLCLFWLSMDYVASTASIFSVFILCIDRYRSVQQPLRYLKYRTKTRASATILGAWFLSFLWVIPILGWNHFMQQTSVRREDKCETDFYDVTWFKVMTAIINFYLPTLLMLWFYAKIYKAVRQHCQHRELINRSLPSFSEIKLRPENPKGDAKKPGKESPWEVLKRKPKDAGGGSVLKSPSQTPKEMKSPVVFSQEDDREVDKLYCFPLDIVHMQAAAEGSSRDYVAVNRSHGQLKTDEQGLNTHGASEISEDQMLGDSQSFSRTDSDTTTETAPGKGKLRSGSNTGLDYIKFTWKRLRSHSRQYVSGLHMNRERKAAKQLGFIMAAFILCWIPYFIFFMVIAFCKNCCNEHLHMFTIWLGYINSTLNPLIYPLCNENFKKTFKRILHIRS", "conditions": "read-out: affinity for histamine H1 receptor; cited from earlier work"}}, "data": [{"smiles": "O=c1ccc2ccc(OCCCCN3CCN(c4cccc5sccc45)CC3)cc2[nH]1", "note": "[Compound 45, Brexpiprazole]", "values": [{"measurement": "Percent Rescue (Mort + Tail Edema)", "setting": "[1]; 3-dpf embryos, 24 hours, n=16", "result": 100, "unit": "%"}, {"measurement": "rescue of tail edema and mortality (sepsis rescue rate) at 3-dpf", "setting": "[1]; 3-dpf, 24 hours", "result": 100, "unit": "%"}, {"measurement": "3 dpf Embryos Percent Rescue (Mort + Tail Edema)", "setting": "[1]; initial 3-dpf screen shown for reference", "result": 100, "unit": "%"}, {"measurement": "activity during the dark phase", "setting": "[2]", "result": "not significant"}, {"measurement": "Ki", "setting": "D3", "result": 1.1, "unit": "nM"}, {"measurement": "Ki", "setting": "α1B", "result": 0.17, "unit": "nM"}, {"measurement": "Ki", "setting": "α1D", "result": 2.6, "unit": "nM"}, {"measurement": "Ki", "setting": "histamine H1 receptor", "result": 19, "unit": "nM"}]}]}
